Data from patent publication US4778796A, “ω-(3-pyridyl)alkenamide derivatives and anti-allergenic pharmaceutical compositions containing same” (Dainippon Pharmaceutical Co., Ltd., priority 1985, dated 1988).
Read-outs that look alike come from different tables or passages of the source.

How the values were obtained:
[1] = tested on: histamine-induced contraction of isolated guinea pig trachea; experiment: Inhibitory effect on histamine-induced contraction of isolated guinea pig trachea; design: species or system guinea pig (male Hartley)
Protocol: (2) Inhibitory effect on histamine-induced contraction of isolated guinea pig trachea:
Male Hartley guinea pigs (400-700 g) were used. Zig-zag strips of guinea pig trachea were prepared by the method of Emmerson and Mackay [cf. J. Pharm. […] Dose-response curves for histamine were obtained before and 5 minutes after the addition of test compounds. Inhibitory rate was calculated from contraction heights in 3×10^-5 M of histamine without vs. with test compound.

[2] = tested on: passive cutaneous anaphylaxis (PCA); experiment: Inhibitory effect on passive cutaneous anaphylaxis (PCA) in rats; type: in vivo, rat (male Wistar); conditions: Rattus norvegicus; 20 mg/kg, oral, 1 hour before antigen challenge; read-out: Inhibition (PCA in rats)
Protocol: (1) Inhibitory effect on passive cutaneous anaphylaxis (PCA) in rats:
This test was carried out by the method of Perper et al. [cf.
Male Wistar rats (130-180 g) were injected with 0.1 ml of a dilute solution of mouse antiserum to egg albumin in two sites of the shaved ventral skin. Forty-eight hours later each rat was challenged by an intravenous injection of 2 mg of the antigen together with 1 ml of a 0.5% Evan's blue saline solution. The rats were sacrificed 30 minutes after the challenge. The area of the blueing lesions was measured on the undersurface of the skin. The average value of the two lesions of each rat was regarded as the response of the rat. Test compounds in a dose of 20 mg/kg, dissolved or suspended in a 0.5% aqueous tragacanth solution, were administered orally 1 hour before the antigen challenge. The inhibitory rate was determined by comparing the responses of the rats given each test compound with those of the rats given only a 0.5% aqueous tragacanth solution. Each group of 3 rats was used for each test compound. The mouse antiserum to egg albumin was produced by the method of Levine and Vaz [cf. Int. Arch. Allergy Appl.

experimental asthma = experiment: Inhibitory effect on experimental asthma in rats; type: in vivo, rat (male Wistar); conditions: Rattus norvegicus, po, 1 hour before antigen challenge
Protocol: (2) Inhibitory effect on experimental asthma in rats: This test was carried out by the method of Church and Miller [cf. Brit. […] Male Wistar rats (200-250 g) were sensitized by an intraperitoneal injection of 1 ml of a 0.01% egg albumin solution containing 1 mg of Al(OH)3. Two weeks later, the rats were anesthetized with 1.3 g/kg of urethane. The trachea and jugular vein were cannulated. Respiratory volume and velocity were measured by attaching one end of the tracheal cannula to respiratory volume meter connected to a carrier amplifier and an integrator. The rats were challenged by an intravenous injection of 4 mg/kg of egg ablumin 30 minutes after the anesthesia. Test compounds, dissolved or suspended in a 0.5% aqueous tragacanth solution, were administered orally 1 hour before the antigen challenge. Each group of 4 rats was used for each dose of the test compound. ED50 values were calculated from the best fit linear regression line of inhibitory rates of respiratory volume and velocity in each dose.

5-lipoxygenase = target: T1, 5-lipoxygenase (Cavia porcellus, UniProt A0A286X958); experiment: Inhibitory effect on 5-lipoxygenase activity in guinea pig leukocytes; type: biochemical, guinea pig (male Hartley); conditions: 10^-5 M; read-out: 5-Lipoxygenase inhibit. activity, Inhibition
T1 construct: The cytosol fraction of peritoneal exudate cells from male Hartley guinea pigs (400-700 g) was used as 5-lipoxygenase; from tissue; host or cells: cytosol fraction of peritoneal exudate cells (leukocytes) of male Hartley guinea pigs
T1 sequence (A0A286X958 1-674): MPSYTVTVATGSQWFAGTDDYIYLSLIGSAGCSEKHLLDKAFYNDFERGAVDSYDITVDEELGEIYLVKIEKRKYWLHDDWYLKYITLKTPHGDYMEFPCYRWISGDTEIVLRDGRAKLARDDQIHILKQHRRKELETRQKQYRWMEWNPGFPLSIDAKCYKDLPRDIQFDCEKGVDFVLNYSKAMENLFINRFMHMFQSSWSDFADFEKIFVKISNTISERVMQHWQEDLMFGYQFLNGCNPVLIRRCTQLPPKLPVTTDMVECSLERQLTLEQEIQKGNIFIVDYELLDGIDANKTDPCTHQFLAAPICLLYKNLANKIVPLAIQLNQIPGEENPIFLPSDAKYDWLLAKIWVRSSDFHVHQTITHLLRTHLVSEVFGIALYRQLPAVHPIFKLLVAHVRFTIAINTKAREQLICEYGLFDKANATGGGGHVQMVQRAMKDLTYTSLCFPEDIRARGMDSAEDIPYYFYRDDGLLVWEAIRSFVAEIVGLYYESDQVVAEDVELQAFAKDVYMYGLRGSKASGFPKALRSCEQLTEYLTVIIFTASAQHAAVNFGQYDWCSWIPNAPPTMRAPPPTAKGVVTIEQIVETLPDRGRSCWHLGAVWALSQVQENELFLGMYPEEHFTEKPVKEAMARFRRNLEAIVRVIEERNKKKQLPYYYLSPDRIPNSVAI
Protocol: (1) Inhibitory effect on 5-lipoxygenase activity in guinea pig leukocytes:
This test was carried out by the method of Miyamoto and Obata (cf. "Perspectives in Prostaglandin Research," ed. by Y. Shiokawa et al., Excepta Medica, Amsterdam-Oxford-Princeton, 1983, p78) with minor modifications.
The cytosol fraction of peritoneal exudate cells from male Hartley guinea pigs (400-700 g) was used as 5-lipoxygenase. The standard reaction mixture contained 50 mM potassium phosphate buffer, 1 mM CaCl2, 1 mM glutathione, 1 mM adenosine triphosphoric acid, 10 μM indomethacin and the enzyme. The mixture was incubated for 5 minutes at 30° C. after addition of [1-^14 C]arachidonic acid (0.02 μCi). The reaction was terminated by addition of 0.6 ml of the cold organic solvents (diethyl ether/methanol/0.2M citric acid=30/4/1). The organic layer (300 μl) was applied onto a precoated silica gel 60F254 glass plate (E. Merck, West Germany). Radioactivity on the plate was monitored by a radiochromatogram scanner (Packard, U.S.A.). 5-Lipoxygenase activity was calculated according to the following equation. [formula]
The effects of the test compounds were expressed in terms of percent inhibition.

[3] = tested on: contact hypersensitivity to oxazolone; experiment: Inhibitory effect on contact hypersensitivity to oxazolone in mice; type: in vivo, mouse (male ICR); conditions: topical, 0.3 mg/ear; 24 hours after challenge
Protocol: (3) Inhibitory effect on contact hypersensitivity to oxazolone in mice:
This test was carried out by the method of Evans et al. [cf. Brit.
Male ICR mice (18-20 g) were used. The abdominal region of the mice was carefully clipped with an electric clipper, and 0.1 ml of a 0.5 w/v % oxazolone solution in absolute ethanol was gently rubbed into the clipped area. Five days after the sensitization 20 μl of a 0.5 w/v % oxazolone solution in acetone or chloroform, or the solution containing test compound was applied to both sides of the right ear. The left ear was not treated. Twenty-four hours after the challenge, the animals were sacrificed with diethyl ether. The circular parts (5.5 mm in diameter) of both ears were removed by punching and then weighed. The inhibitory rate was determined by comparing the ear swelling of the mice treated with oxazolone containing test compound with that of the mice treated with oxazolone. Each group of 8 mice was used for each dose of the test compound.

| Structure (SMILES) | inhibition in vivo at 20 mg/kg [2] | inhibition at 10 µM (5-lipoxygenase) | further results |
| --- | --- | --- | --- |
| O=C(C=Cc1cccnc1)NCCCCN1CCN(C(c2ccccc2)c2ccccc2)CC1 [Example 1, N-[3-(3-pyridyl)acryloyl]-4-(4-diphenylmethyl-1-piperazinyl)butylamine] | 62.3% | – | IC50 ([1]; 3×10^-5 M histamine, isolated guinea pig trachea, read-out: Anti-hist. activity IC50): 960 nM; antihistamine activity (in words) ([1]; compared with ketotifen fumarate): potent antihistamine activity, though fairly inferior to that of ketotifen fumarate; ED50 (experimental asthma; respiratory velocity, read-out: ED50, respiratory velocity): 14.1 mg/kg; ED50 (experimental asthma; respiratory volume, read-out: ED50, respiratory volume): 13.3 mg/kg |
| O=C(C=Cc1cncc(F)c1)NCCCCN1CCN(C(c2ccccc2)c2ccccc2)CC1 [Example 3, N-[3-(5-fluoro-3-pyridyl)acryloyl]-4-(4-diphenylmethyl-1-piperazinyl)butylamine] | 65% | – | – |
| CC/C(=C\c1cccnc1)C(=O)NCCCCN1CCN(C(c2ccccc2)c2ccccc2)CC1 [Example 5, N-[3-(3-pyridyl)-2-ethylacryloyl]-4-(4-diphenylmethyl-1-piperazinyl)butylamine sesquifumarate] | 67.8% | – | – |
| O=C(C=Cc1cccnc1)NCCCCN1CCCN(C(c2ccccc2)c2ccccc2)CC1 [Example 6, N-[3-(3-pyridyl)acryloyl]-4-(4-diphenylmethyl-1-homopiperazinyl)butylamine1/4 hydrate] | 70% | – | – |
| O=C(C=Cc1ccccn1)NCCCCN1CCN(C(c2ccccc2)c2ccccc2)CC1 [Example 11] | – | 59.6% | – |
| Cc1ccc(C=CC(=O)NCCCCCN2CCN(C(c3ccccc3)c3ccccc3)CC2)cn1 [Example 15] | – | 48.6% | – |
| Cc1ccc(O)c(C=CC(=O)NCCCCN2CCN(C(c3ccccc3)c3ccccc3)CC2)n1 [Example 20] | – | 68.6% | – |
| COc1ccc(C=CC(=O)NCCCCN2CCN(C(c3ccccc3)c3ccccc3)CC2)cn1 [Example 25] | – | 66.2% | – |
| O=C(C=Cc1ccc(Oc2cccc(F)c2)nc1)NCCCCN1CCN(C(c2ccccc2)c2ccccc2)CC1 [Example 29] | 60.7% | – | – |
| O=C(C=Cc1ccc(Cl)nc1)NCCCCN1CCN(C(c2ccccc2)c2ccccc2)CC1 [Example 37] | – | 54.6% | – |
| Cc1ncc(C=CC(=O)NCCCCN2CCN(C(c3ccccc3)c3ccccc3)CC2)c(CO)c1O [Example 38, N-[3-(5-hydroxy-4-hydroxymethyl-6-methyl-3-pyridyl)acryloyl]-4-(4-diphenylmethyl-1-piperazinyl)butylamine] | – | 72.7% | % Inhibition of ear swelling [3]: 83.8% |
| O=C(C=Cc1ccc(O)nc1)NCCCCN1CCN(C(c2ccccc2)c2ccccc2)CC1 [Example 44] | – | 45.5% | – |
| O=C(C=Cc1cncc(Cl)c1)NCCCCN1CCN(C(c2ccccc2)c2ccccc2)CC1 [Example 47] | 66.4% | – | – |
| Cc1ccc(C(c2ccccc2)N2CCN(CCCCNC(=O)C=Cc3ccc(C)nc3)CC2)cc1 (centres unmarked) [Example 48] | 73.9% | – | – |
| Cc1ccc(C=CC(=O)NCCCCN2CCN(C(c3ccccc3)c3ccccc3)CC2)c(C)n1 [Example 50] | 66.8% | 61.2% | – |
| Cc1ncccc1C=CC(=O)NCCCCN1CCN(C(c2ccccc2)c2ccccc2)CC1 [Example 53] | 68.8% | – | – |
| Cc1ccc(C(c2ccccc2)N2CCN(CCCCNC(=O)C=Cc3cccnc3)CC2)cc1 (centres unmarked) [Example 58] | 82.9% | – | – |
| O=C(C=Cc1cccnc1)NCCCCN1CCN(C(c2ccc(F)cc2)c2ccc(F)cc2)CC1 [Example 62] | 56.1% | – | – |
| O=C(C=Cc1cccnc1)NCCCCN1CCN(C(c2ccccc2)c2ccc(Br)cc2)CC1 (centres unmarked) [Example 64] | 55.8% | – | – |
| C/C(=C\c1cccnc1)C(=O)NCCCCN1CCN(C(c2ccccc2)c2ccccc2)CC1 [Example 76] | 78.9% | 43.5% | % Inhibition of ear swelling [3]: 65.8% |
| C/C(=C\c1ccc(C)nc1)C(=O)NCCCCN1CCN(C(c2ccccc2)c2ccccc2)CC1 [Example 77] | 58.2% | – | – |
| O=C(NCCCCN1CCN(C(c2ccccc2)c2ccccc2)CC1)/C(=C/c1cccnc1)c1ccccc1 [Example 79] | 58% | – | – |
| O=C(C=CC=Cc1cccnc1)NCCCN1CCN(C(c2ccccc2)c2ccccc2)CC1 [Example 84] | – | 60.3% | – |
| O=C(C=CC=Cc1cccnc1)NCCCCN1CCN(C(c2ccccc2)c2ccccc2)CC1 [Example 85] | 66.4% | – | – |
| Cc1ccc(C=CC=CC(=O)NCCCCN2CCN(C(c3ccccc3)c3ccccc3)CC2)cn1 [Example 87] | 68.8% | – | – |
| O=C(C=Cc1cccnc1)NCC=CCN1CCN(C(c2ccccc2)c2ccccc2)CC1 [Example 90, N-[3-(3-pyridyl)acryloyl]-4-(4-diphenylmethyl-1-piperazinyl)-2-butenylamin] | 83.3% | – | % Inhibition of ear swelling [3]: 46.3% |
